Values of other authors in US7235589B2, “Method of treating patients undergoing kidney dialysis” (Bio Numerik Pharmaceuticals, Inc., priority 2004, dated 2007).

Assays:
[1] = accepted value
humans = conditions: doses exceeding 40 g/m^2
dogs = conditions: intravenously, doses higher than the accepted oral LD50 for common table salt (3750 mg/kg)
mice = conditions: intravenously, doses higher than the accepted oral LD50 for common table salt (3750 mg/kg)

| SMILES | oral LD50 [1] [mg/kg] | adverse effects (humans) | adverse effects (dogs) | adverse effects (mice) |
| --- | --- | --- | --- | --- |
| [Cl-].[Na+] [common table salt] | 3750 | – | – | – |
| O=S(=O)([O-])CCSSCCS(=O)(=O)[O-].[Na+].[Na+] [dimesna, disodium 2,2′-dithiobis ethane sulfonate] | – | no adverse effects | no adverse effects | no adverse effects |
